Results: patent publication US20220031680A1, “Donecopride As Neuroprotective Agent In the Treatment of Neurodegenerative Diseases” (priority 2018, published 2022)

Experiments:
[1] = system: C57Bl6/J mice challenged with an intracerebroventricular injection of Aβ1-42 oligomers (AβO); experiment: Y-maze test (spatial working memory) in mice icv injected with AβO; type: in vivo, mouse; settings: day +4
Procedure: (§1) Briefly, 144 C57Bl6/J male mice (3 months of age) were received and housed (4 to 5 per cage) in quarantine during 7 days, or longer. Test items were dosed per os (through oral gavage) once daily at different concentrations from day −1 to day +17.
At day 0, mice received a single icv injection of vehicle or AβO.
At day +4 (i.e. four days after disease induction), spatial working memory was assessed using the Y-maze test.
(§2) The different experimental groups are defined as follow: • GROUP A (vehicle CTRL): po vehicle AND icv injection of vehicle (n=12) • GROUP B (APO CTRL): po vehicle AND icv injection of AβO (n=12) • GROUP C (positive CTRL): po Donepezil subchronic AND icv injection of AβO (n=12) • GROUP D (Donecopride CTRL): po Donecopride (9 mg/kg) AND icv injection of vehicle (n=12) • GROUP E (Flucopride CTRL): po Flucopride (9 mg/kg) AND icv injection of vehicle (n=12) • GROUP F (Donecopride Treated): po Donecopride (1 mg/kg) AND icv injection of AβO (n=12) • GROUP G (Donecopride Treated): po Donecopride (3 mg/kg) AND icv injection of AβO (n=12) • GROUP H (Donecopride Treated): po Donecopride (9 mg/kg) AND icv injection of AβO (n=12) • GROUP I (Fluocopride Treated): po Flucopride (1 mg/kg) AND icv injection of AβO (n=12) • GROUP J (Flucopride Treated): po Flucopride (3 mg/kg) AND icv injection of AβO (n=12) • GROUP K (Flucopride Treated): po Flucopride (9 mg/kg) AND icv injection of AβO (n=12) • GROUP L (positive CTRL): ip Donepezil acute on test days AND icv injection of AβO (n=12)
(§3) For per os dosing, Donecopride and Flucopride were formulated by solubilization in 0.9% NaCl. Compound dosing (total volume of 200 μL) started one day before induction of the disease (through icv injection of AβO) and was done for 19 consecutive days.
(§4) Single intra-cerebroventricular injection of 144 mice with vehicle or APO (max. 24 mice per day, all mice randomized): under anesthesia (ip injection of a mixture of ketamine/xylasine at a dose of 110 and 15 mg/kg, respectively) AβO (1 μL), or vehicle (1 μL) were injected into the right lateral ventricle. Injections were made using 10 μL Hamilton micro syringes fitted with a 26-gauge needle. The procedure was terminated by a subcutaneous injection of metacam (analgesia) at a dose of 5 mg/kg. Animals were then placed individually in their home-cage and the cage was placed in a heated cabinet until the animal has fully recovered. Animals were carefully monitored to control recovery after anesthesia.
(§5) Preparation of APO: Aβ1-42 was obtained from Bachem (ref H1368) (batch number: 1052301). The preparation of stable Aβ1-42 oligomers was performed as described in Garcia et al. (2010) J. Neurosci. 30:7516-7527. The oligomeric preparation (identified as Batch #2016-14) contained a mixture of stable trimers and tetramers of Aβ1-42, as well as monomeric forms of the peptide. All oligomer preparations used were previously characterized in terms of oligomer composition and in vitro neurotoxicity.
6 independent trials involving each 24 mice (i.e. 2 mice from each experimental group) for a total of 144 mice at day +4—Behavioral tests were performed 1 h after dosing.
Detailed protocol: Immediate spatial working memory performance was assessed by recording spontaneous alternation behavior in a Y-maze. The maze is made of opaque Plexiglas and each of the three arms is 40 cm long, 14 cm high, 10 cm wide and positioned at equal angles. The apparatus is placed in a homogeneously lit test room to obtain 12-15 lux in all arms as well as in the central zone. Mice are placed in the middle of one arm and allowed to explore the maze freely during 5 min session. The series of arm entries are video recorded (Smart v3.0 software, Bioseb) and an arm entry is considered complete when the hind paws of the mouse are completely placed in the arm. Alternation is defined as successive entries into the 3 arms on overlapping triplet sets. […]

[2] = system: C57Bl6/J mice challenged with an intracerebroventricular injection of Aβ1-42 oligomers (AβO); experiment: Morris water maze (learning and long-term memory) in mice icv injected with AβO; type: in vivo, mouse
Procedure: as §1
From days +3 to days +14, learning capacities and long-term memory were investigated in the MWM assay.
as §2, §3, §4, §5
6 independent trials involving each 24 mice (i.e. 2 mice from each experimental group) for a total of 144 mice at day +4.
Detailed protocol: Habituation trials (visible platform)—The Morris water maze (MWM) was performed as described in Garcia et al. (2010) J. Neurosci. 30:7516-7527. The experimental apparatus consists of a circular water tank (diameter=100 cm; height=50 cm) containing water at 21° C. to a depth of 25 cm and rendered opaque to block the view past the water surface by adding an aqueous acrylic emulsion. A platform (diameter=10 cm) is used and placed at the midpoint of a quadrant. The pool is located in a test room, homogeneously illuminated at 100 lux. The swimming path of the animals is recorded using a video tracking system. Mice are brought to the experimental room for at least 30 min prior to testing, to enable acclimation to the experimental room conditions. Navigation to a visible platform is carried out before place-navigation, to evaluate visual and motor abilities of all mice. […]

[3] = ip acute on test day, icv AβO (Group L)
[4] = po sub-chronic, icv AβO (Group C)
[5] = 9 mg/kg/day po, icv vehicle (no AβO)
[6] = 3 mg/kg/day po, icv AβO, day 5 of training
[7] = 9 mg/kg/day po, icv vehicle, day 5 of training
[8] = at all doses (1, 3, 9 mg/kg/day po), icv AβO

Structure (SMILES)	time spent in target vs opposite quadrant (MWM probe trial) ([2]; icv AβO)	alternation behavior (Y-maze) ([1]; 1 mg/kg/day po, icv AβO)	alternation behavior (Y-maze) ([1]; 3 mg/kg/day po, icv AβO)	alternation behavior (Y-maze) ([1]; 9 mg/kg/day po, icv AβO)	alternation behavior (Y-maze) [1, 5]	mean crossing number (MWM probe trial) ([2]; 3 mg/kg/day po, icv AβO)	mean escape latency (MWM learning trials) [2, 6]	mean crossing number (MWM probe trial) ([2]; 9 mg/kg/day po, icv vehicle)	mean latency to target (MWM probe trial) ([2]; 9 mg/kg/day po, icv vehicle)	mean escape latency (MWM learning trials) [2, 7]	AβO-induced impairment of long-term memory evaluated using the number of crossings [2, 8]	other results
COc1cc2c(cc1OC)C(=O)C(CC1CCN(Cc3ccccc3)CC1)C2 (stereo not shown) [Donepezil, reference compound]	failed to improve											alternation behavior (Y-maze) [1, 3]: 60.8±1.9%; alternation behavior (Y-maze) ([1]; per os subchronic, icv AβO (Group C)): 66.1±1.8%; mean crossing number (MWM probe trial) [2, 3]: 3.8±0.4; mean latency to target (MWM probe trial) [2, 3]: 13.3 ± 2.3 s; mean escape latency (MWM learning trials) ([2]; ip acute on test day, icv AβO (Group L), day 5 of training): 13.4 ± 1.5 s; mean crossing number (MWM probe trial) [2, 4]: 3.7±0.4; mean latency to target (MWM probe trial) [2, 4]: 14.6 ± 2.7 s; mean escape latency (MWM learning trials) ([2]; po sub-chronic, icv AβO (Group C), after five days of training (day 5)): 14.7 ± 1.9 s
COc1cc(N)c(F)cc1C(=O)CCC1CCN(CC2CCCCC2)CC1 [Flucopride]	did not improve	67.1±2.7%	65.3±4.1%	59.1±3.0%	63.1±2.3%	4.1±0.6	12.5 ± 1.1 s	4.6±0.7	12.0 ± 2.1 s	16.3 ± 2.0 s	inhibition	mean escape latency (MWM learning trials) ([2]; 1 mg/kg/day po, icv AβO, day 5 of training): 13.1 ± 1.1 s; improvement of learning capacities (MWM learning trials) ([2]; 9 mg/kg/day po, icv AβO): had no effect; mean latency to target (MWM probe trial) ([2]; 9 mg/kg/day po, icv AβO): 10.7 ± 1.9 s; mean escape latency (MWM learning trials) ([2]; 9 mg/kg/day po, icv vehicle, day 4 of training): 14.2 ± 1.9 s
COc1cc(N)c(Cl)cc1C(=O)CCC1CCN(CC2CCCCC2)CC1 [Donecopride]	did not improve	56.6±3.7%	65.5±4.4%	64.3±5.1%	59.3±4.0%	5.1±0.6	12.7 ± 1.5 s	4.6±0.5	7.2 ± 1.5 s	13.0 ± 1.7 s	inhibition	mean latency to target (MWM probe trial) ([2]; 1 mg/kg/day po, icv AβO): 9.3 ± 1.4 s; AβO-induced impairment of long-term memory evaluated using the latency to target [2, 8]: inhibition
